What was measured:
Format in all cases: in vivo
[1] = system: glyphosate-resistant sourgrass (Digitaria insularis); experiment: Post-emergence treatment test on glyphosate-resistant sourgrass, nicosulfuron WG formulations (Example 1); conditions: conclusion from Table 2
Method: Post-emergence treatment tests were conducted on glyphosate-resistant sourgrass (Digitaria insularis). Sourgrass plants were planted and kept in a greenhouse at about 24° C. and 85% humidity throughout the experiment.
The WG formulations were each diluted with water prior to treatment of the sourgrass plants.
The herbicidal efficiency of each formulation as determined by visual observation at each of 7, 14 and 20 days after the treatment.
The the efficacy of each formulation is represented by a comparison between the treated plants and the Control plants. A score of 0% represents no herbicidal activity. A score of 100% represents complete herbicidal activity (plants completely killed).

soybean plants [2] = experiment: Phytotoxicity test on soybean sown in treated plots at different times after treatment (Example 3); set-up: key: EWRC scale 1-9: 1 = no symptoms, 9 = total plant destruction
Method: Sourgrass plants were planted and kept at about 24° C. and 85% humidity throughout the experiment.
The sourgrass plants were treated with water dispersible granule (WG) formulations of nicosulfuron and/or glyphosate as summarised in Table 5.
Soybean seeds were sown separately in each of the treated plots 1 day, 7 days, 14 days, 20 days and 30 days after the treatment.
(§1) In order to quantify the damage caused to the soybean plants, visual analysis of phytotoxicity was conducted and recorded based on the scale proposed by the European Weed Research Council. The extent of damage on this scale varies from 1 to 9, where “1” represents absence of symptoms and “9” represents total plant destruction.
Evaluation was conducted 7 days, 14 days, 21 days and 28 days after emergence of the soybean plants.

soybean plants [3] = experiment: Phytotoxicity tests on soybean sown 20 days after treatment under conditions X1-X4 (Example 4); conditions: Nicosulfuron 75 g/ha, Glyphosate 0 g/ha, 150 L/ha, evaluated 7 days after emergence, EWRC scale 1-9
Method: Sourgrass plants were planted and kept at the conditions summarised in Table 7 below throughout the experiment:
The WG formulations were dispersed in water and applied to the locus of the sourgrass plants at a volumetric rate of 150 L/ha.
Soybean seeds were sown in a greenhouse in the treated plots 20 days after the treatment with the herbicide(s). The period of 20 days was determined by applying Formula I above to the parameters set out above.
as §1
Evaluation was conducted 7 days after emergence of the soybean plants.

COc1cc(OC)nc(NC(=O)NS(=O)(=O)c2ncccc2C(=O)N(C)C)n1 [Nicosulfuron, 2-(4,6-dimethoxypyrimidin-2-ylcarbamoylsulfamoyl)-N,N-dimethylnicotinamide]
effective: control of sourgrass plants (in words) [1]
4: Phytotoxicity Level (soybean plants [2]; Nicosulfuron 50 g/ha, Glyphosate 0 g/ha (A3 of Table 5), soybean sown 1 day after treatment, EWRC scale 1 (absence of symptoms) to 9 (total plant destruction)) | Phytotoxicity Level (soybean plants [2]; Nicosulfuron 75 g/ha, Glyphosate 0 g/ha (C3 of Table 5), soybean sown 1 day after treatment, EWRC scale 1-9) | Phytotoxicity Level (soybean plants [2]; Nicosulfuron 75 g/ha, Glyphosate 0 g/ha (C3 of Table 5), soybean sown 7 days after treatment, EWRC scale 1-9)
3: Phytotoxicity Level (soybean plants [2]; Nicosulfuron 50 g/ha, Glyphosate 0 g/ha (A3 of Table 5), soybean sown 7 days after treatment, EWRC scale 1-9)
2: Phytotoxicity Level (soybean plants [2]; Nicosulfuron 50 g/ha, Glyphosate 0 g/ha (A3 of Table 5), soybean sown 14 days after treatment, EWRC scale 1-9) | Phytotoxicity Level (soybean plants [2]; Nicosulfuron 75 g/ha, Glyphosate 0 g/ha (C3 of Table 5), soybean sown 14 days after treatment, EWRC scale 1-9)
1: Phytotoxicity Level (soybean plants [2]; Nicosulfuron 50 g/ha, Glyphosate 0 g/ha (A3 of Table 5), soybean sown 20 days after treatment, EWRC scale 1-9) | Phytotoxicity Level (soybean plants [2]; Nicosulfuron 50 g/ha, Glyphosate 0 g/ha (A3 of Table 5), soybean sown 30 days after treatment, EWRC scale 1-9) | Phytotoxicity Level (soybean plants [2]; Nicosulfuron 75 g/ha, Glyphosate 0 g/ha (C3 of Table 5), soybean sown 20 days after treatment, EWRC scale 1-9) | Phytotoxicity Level (soybean plants [2]; Nicosulfuron 75 g/ha, Glyphosate 0 g/ha (C3 of Table 5), soybean sown 30 days after treatment, EWRC scale 1-9) | Phytotoxicity Level (soybean plants [3]; conditions X1 (17 ° C., 95% humidity, 8.5 hr sunlight per day), soybean sown 20 days after treatment) | Phytotoxicity Level (soybean plants [3]; conditions X2 (24 ° C., 85% humidity, 9 hr sunlight per day), sown 20 days after treatment) | Phytotoxicity Level (soybean plants [3]; conditions X3 (32 ° C., 65% humidity, 9.5 hr sunlight per day), sown 20 days after treatment) | Phytotoxicity Level (soybean plants [3]; conditions X4 (37 ° C., 30% humidity, 10 hr sunlight per day), sown 20 days after treatment)

From patent US20220304308A1, “METHOD FOR CONTROLLING GROWTH OF GLYPHOSATE-TOLERANT PLANTS” (JIANGSU ROTAM CHEMISTRY CO., LTD., priority 2019, published 2022)
